Test results as given in patent US10098902B2, “Arginase inhibitors as therapeutics” (Mars, Incorporated, priority 2010, dated 2018).

Legend:
[1] = test system: animals undergoing experimental autoimmune encephalomyelitis (EAE); details: mouse, in vivo; cited from earlier work
[2] = molecular target: human arginase I (ARG I) (Homo sapiens (Human), UniProt P05089); assay: Inhibition of arginase I, spectrophotometric urea assay at 530 nm; format: biochemical; details: potency rank 1-5; pH 7.4, 37° C., 60 minutes
human arginase I (ARG I), sequence (P05089 whole entry): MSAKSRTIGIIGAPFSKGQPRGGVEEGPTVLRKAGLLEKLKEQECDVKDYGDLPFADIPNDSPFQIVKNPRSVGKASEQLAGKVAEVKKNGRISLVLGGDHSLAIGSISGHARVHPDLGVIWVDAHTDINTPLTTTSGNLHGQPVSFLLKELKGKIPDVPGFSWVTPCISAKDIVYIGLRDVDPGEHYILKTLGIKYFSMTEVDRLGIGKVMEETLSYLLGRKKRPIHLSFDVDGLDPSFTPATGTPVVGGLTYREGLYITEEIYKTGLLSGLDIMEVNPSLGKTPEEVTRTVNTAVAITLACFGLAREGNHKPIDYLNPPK
Procedure: (§1) Inhibition of arginase I (ARG I) and arginase II (ARG II) by Formula I or Formula II compounds is followed spectrophotometrically at 530 nm. The compound to be tested was dissolved in DMSO at an initial concentration 50-fold greater than its final concentration in the cuvette. 10 μl of the stock solution was diluted in 90 μl of the assay buffer that comprises 0.1M sodium phosphate buffer containing 130 mM NaCl, pH 7.4, to which is added ovalbumin (OVA) at a concentration of 1 mg/ml. Solutions of arginase I and II were prepared in 100 mM sodium phosphate buffer, pH 7.4 containing 1 mg/ml of OVA to give an arginase stock solution at a final concentration of 100 ng/ml.
(§2) To each well of a 96-well microtiter plate was added 40 μl of enzyme, 10 μl of an inventive compound and 10 μl of enzyme substrate (L-arginine+manganese sulfate). For wells that were used as positive controls, only the enzyme and its substrate were added, while wells used as negative controls contained only manganese sulfate.
(§3) After incubating the microtiter plate at 37° C. for 60 minutes, 150 μl of a urea reagent obtained by combining equal proportions (1:1) of reagents A and B is added to each well of the microtiter plate to stop the reaction. The urea reagent is made just before use by combining Reagent A (10 mM o-phthaldialdehyde, and 0.4% polyoxyethylene (23) lauryl ether (w/v) in 1.8 M sulfuric acid) with Reagent B (1.3 mM primaquine diphosphate, 0.4% polyoxyethylene (23) lauryl ether (w/v), 130 mM boric acid in 3.6 mM sulfuric acid). After quenching the reaction mixture, the microtiter plate is allowed to stand for an additional 10 minutes at room temperature to allow the color to develop. The inhibition of arginase was computed by measuring the optical density (OD) of the reaction mixture at 530 nm and normalizing the OD value to percent inhibition observed in the control. The normalized OD is then used to generate a dose-response curve by plotting the normalized OD values against log [concentration] and using regression analysis to compute the IC50 values.

[3] = molecular target: human arginase II (ARG II) (Homo sapiens (Human), UniProt P78540); assay: Inhibition of arginase II, spectrophotometric urea assay at 530 nm; format: biochemical; details: potency rank 1-5; pH 7.4, 37° C., 60 minutes
human arginase II (ARG II), sequence (P78540 23-354): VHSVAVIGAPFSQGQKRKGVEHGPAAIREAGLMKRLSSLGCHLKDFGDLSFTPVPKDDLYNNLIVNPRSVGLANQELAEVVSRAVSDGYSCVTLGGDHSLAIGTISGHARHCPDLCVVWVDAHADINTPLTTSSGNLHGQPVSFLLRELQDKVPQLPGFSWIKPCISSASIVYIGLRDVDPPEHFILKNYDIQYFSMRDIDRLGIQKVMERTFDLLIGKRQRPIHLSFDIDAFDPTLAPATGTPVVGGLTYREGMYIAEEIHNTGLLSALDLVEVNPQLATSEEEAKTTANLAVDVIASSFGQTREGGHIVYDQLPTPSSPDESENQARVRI
Procedure: as §1, §2, §3

[4] = test system: bacterial arginase; details: cited from earlier work
[5] = test system: central airways in the murine chronic model; details: murine chronic asthma model; cited from earlier work
[6] = test system: spontaneously hypertensive animals; details: cited from earlier work

Structure (SMILES)	IC50 [2] [nM]	IC50 [3] [nM]	further results
NC(CCCCB(O)O)C(=O)O (stereo not shown) [ABH, amino-6-boronohexanoic acid]	–	–	severity of EAE versus control animals [1]: much milder form of EAE
N[C@@]1(C(=O)O)CN(CC2Cc3ccc(Cl)cc3CN2)C[C@@H]1CCCB(O)O (stereo partly drawn) [Example 49, (3R,4S)-3-amino-4-(3-boronopropyl)-1-((7-chloro-1,2,3,4-tetrahydroisoquinolin-3-yl)methyl)pyrrolidine-3-carboxylic acid]	0.1 to 250	0.1 to 250	–
Nc1ccccc1S(=O)(=O)N1C[C@H](CCCB(O)O)[C@](N)(C(=O)O)C1 [Example 50, (3R,4S)-3-amino-1-(2-aminophenylsulfonyl)-4-(3-boronopropyl)pyrrolidine-3-carboxylic acid]	251 to 1000	1000 to 2000	–
N[C@@]1(C(=O)O)CN(CC2Cc3cc(Cl)ccc3CN2)C[C@@H]1CCCB(O)O (stereo partly drawn) [Example 51, (3R,4S)-3-amino-4-(3-boronopropyl)-1-((6-chloro-1,2,3,4-tetrahydroisoquinolin-3-yl)methyl)pyrrolidine-3-carboxylic acid]	0.1 to 250	0.1 to 250	–
N[C@@]1(C(=O)O)CN(CCNc2ccc(-c3ccccc3)cc2)C[C@@H]1CCCB(O)O [Example 52, (3R,4S)-3-amino-1-(2-(biphenyl-4-ylamino)ethyl)-4-(3-boronopropyl)pyrrolidine-3-carboxylic acid]	0.1 to 250	0.1 to 250	–
N[C@@]1(C(=O)O)CN(CC2Cc3ccc(C(F)(F)F)cc3CN2)C[C@@H]1CCCB(O)O (stereo partly drawn) [Example 55, (3R,4S)-3-amino-4-(3-boronopropyl)-1-((7-(trifluoromethyl)-1,2,3,4-tetrahydroisoquinolin-3-yl)methyl)pyrrolidine-3-carboxylic acid]	0.1 to 250	0.1 to 250	–
N[C@@]1(C(=O)O)CN(C(=O)C2Cc3ccc(Cl)cc3CN2)C[C@@H]1CCCB(O)O (stereo partly drawn) [Example 56, (3R,4S)-3-amino-4-(3-boronopropyl)-1-(7-chloro-1,2,3,4-tetrahydroisoquinoline-3-carbonyl)pyrrolidine-3-carboxylic acid]	0.1 to 250	0.1 to 250	–
CNC(Cc1ccccc1)C(=O)N1C[C@H](CCCB(O)O)[C@](N)(C(=O)O)C1 (stereo partly drawn) [Example 58, (3R,4S)-3-amino-4-(3-boronopropyl)-1-(2-(methylamino)-3-phenylpropanoyl)pyrrolidine-3-carboxylic acid]	1000 to 2000	1000 to 2000	–
N[C@@]1(C(=O)O)CN(CC2Cc3c(Cl)cc(Cl)cc3CN2)C[C@@H]1CCCB(O)O (stereo partly drawn) [Example 59, (3R,4S)-3-amino-4-(3-boronopropyl)-1-((5,7-dichloro-1,2,3,4-tetrahydroisoquinolin-3-yl)methyl)pyrrolidine-3-carboxylic acid]	0.1 to 250	0.1 to 250	–
N[C@@]1(C(=O)O)CN(C(=O)CNCc2ccccc2)C[C@@H]1CCCB(O)O [Example 60, (3R,4S)-3-amino-1-(2-(benzylamino)acetyl)-4-(3-boronopropyl)pyrrolidine-3-carboxylic acid]	251 to 1000	1000 to 2000	–
N[C@H]1C[C@H](CCCB(O)O)[C@](N)(C(=O)O)C1 [Example 61, (1S,2S,4S)-1,4-diamino-2-(3-boronopropyl)cyclopentanecarboxylic acid]	251 to 1000	251 to 1000	–
NC(=NCCC[C@H](N)C(=O)O)NO [NOHA]	–	–	CD3 expression on T-cells [4]: reestablished CD3 expression on T-cells; production of NO by macrophages [4]: enhanced production of NO by macrophages
N[C@@H](CSCCB(O)O)C(=O)O [S-(2-boronoethyl)-L-cysteine]	–	–	methacholine induced responsiveness of the central airways [5]: attenuated
N=C(NO)NCC[C@H](N)C(=O)O [nor-NOHA, N^ω-hydroxy-nor-L-arginine]	–	–	effect on blood pressure [6]: lowered blood pressure
